Results on 28 molecules are retold here after ChEMBL document CHEMBL6078703, “Discovery of Novel Thiophene-Based Baloxavir Derivatives as Potent Cap-Dependent Endonuclease Inhibitors for Influenza Treatment” (J Med Chem, 2024).

Structures are written as SMILES. Where only a bound is given, the exact number is not on record here.

Series [1] relates to Influenza A virus. The series is described as follows: Antiviral activity against influenza strain A/WSN/1933 (H1N1) infected in MDCK cells assessed as reduction of virus-induced cytopathic effect measured after 2 days incubation. The format is functional, organism-based. The following applies: 48 h.
Series [2] has as its system Influenza A virus. Put plainly: Antiviral activity against influenza strain A/Aichi/ 2/1968 (H3N2) infected in MDCK cells assessed as reduction of virus-induced cytopathic effect measured after 2 days incubation. The following applies: 48 h. The format is functional, organism-based. On the technique in general: Protection from cytopathic effect is a common read-out in antiviral testing.

The nature of series [3]: Cytotoxicity against dog MDCK cells assessed as cell viability measured after 48 hrs by CCK-8 assay. It counts as toxicity, cell-based, Canis lupus familiaris. On the technique in general: Tetrazolium dyes change colour on reduction, which living cells bring about.
A short description of series [4]: Selectivity index, ratio of CC50 for dog MDCK cells to EC50 for antiviral activity against influenza strain A/WSN/1933 (H1N1) infected in MDCK cells. It counts as toxicity, cell-based. The following applies: read-out: Selectivity Index.
Series [5] in a line: Selectivity index, ratio of CC50 for dog MDCK cells to EC50 for antiviral activity against influenza strain A/Aichi/ 2/1968 (H3N2) infected in MDCK cells. The format is toxicity, cell-based. As to conditions: read-out: Selectivity Index.
Series [6] is described as follows: Metabolic stability in human liver microsomes assessed as intrinsic clearance measured up to 60 mins by LC-MS/MS analysis. It counts as ADME, Microsome. The following applies: read-out: CLH.
The nature of series [7]: Metabolic stability in mouse liver microsomes assessed as intrinsic clearance measured up to 60 mins by LC-MS/MS analysis. As to conditions: read-out: CLH. The format is ADME, Microsome. Background: Liver microsomes are a subcellular fraction often used to study metabolism.
Series [8] is described as follows: Metabolic stability in human liver microsomes assessed as half life measured up to 60 mins by LC-MS/MS analysis. The format is ADME, Microsome.
Series [9] can be described thus: Metabolic stability in mouse liver microsomes assessed as half life measured up to 60 mins by LC-MS/MS analysis. The format is ADME, Microsome.

What is called EC50 is the concentration needed to bring the measured effect to its halfway point. Broadly, the CC50 is the concentration giving 50% cytotoxicity. Take `O=C1c2c(O)c(=O)ccn2N([C@H](c2ccc(F)c(F)c2)c2cc3ccccc3s2)[C@@H]2COCCN12`: the EC50 in the series with Influenza A virus [1] came out at 0.0209 µM; in the series on Influenza A virus [2], 0.0203 µM. Also, the CC50 at 48 h in series [3] was over 50 µM. Further, the figures for the selectivity ratio in series [4] and in [5] were over 2400 and over 2460, respectively.
For the molecule `O=C1c2c(O)c(=O)ccn2N([C@H](c2cc(F)c(F)c(F)c2)c2cccs2)[C@@H]2COCCN12`, the half-maximal effective concentration (EC50) is 0.00191 µM in the series on Influenza A virus [1] and 0.0219 µM in the series on Influenza A virus [2]. Further, in series [3], the CC50 at 48 h is 26 µM. The selectivity ratio in series [4] was 13600; in [5] it was 1190.
In the case of `O=C1c2c(O)c(=O)ccn2N([C@@H](c2ccccc2)c2cccs2)[C@@H]2COCCN12`, the figures for the EC50 with Influenza A virus [1] and with Influenza A virus [2] were 0.0398 µM and 0.0218 µM, respectively. For the same molecule, in series [3], the CC50 at 48 h was over 50 µM. Further, the results for the selectivity ratio in [4] and in [5] were over 1260 and over 2300, respectively.
On to `O=C1c2c(O)c(=O)ccn2N([C@H](c2ccc(Br)c(Br)c2)c2cccs2)[C@@H]2COCCN12`, for which the values for the EC50 with Influenza A virus [1] and in the series on Influenza A virus [2] were 0.0162 µM and 0.0176 µM, respectively. Also, the CC50 at 48 h in series [3] turned out to be 24.9 µM. Also, the selectivity ratio in series [4] was found to be 1540; in series [5] it was 1410.
As for `O=C1c2c(O)c(=O)ccn2N([C@H](c2cccs2)c2cc(F)c(F)c(F)c2F)[C@@H]2COCCN12`, the EC50 with Influenza A virus [1] was determined as 0.0124 µM; with Influenza A virus [2], 0.0138 µM. Moreover, in series [3], the 50% cytotoxic concentration (CC50) at 48 h was over 50 µM. Also, the selectivity ratio in [4] was over 4020; in [5] it was over 3630.
In the same order, the values of `O=C1c2c(O)c(=O)ccn2N([C@@H](c2ccc(F)c(F)c2)c2ccc(Br)s2)[C@@H]2COCCN12` are 0.0302 µM, 0.0316 µM, 19.7 µM, 652 and 623.
In the case of `O=C1c2c(O)c(=O)ccn2N([C@@H](c2cccc(F)c2)c2cccs2)[C@@H]2COCCN12`, the values for the EC50 with Influenza A virus [1] and with Influenza A virus [2] were 0.00554 µM and 0.0152 µM, respectively. Besides, the CC50 at 48 h in [3] was over 50 µM. Moreover, the selectivity ratio in series [4] was over 9020; in [5], over 3290.
On to `O=C1c2c(O)c(=O)ccn2N([C@@H](c2cc(F)c(F)c(F)c2)c2cccs2)[C@@H]2COCCN12`, for which the concentration giving a half-maximal response (EC50) turned out to be 0.00934 µM in the series on Influenza A virus [1] and 0.00543 µM with Influenza A virus [2]. Also, in series [3], the CC50 at 48 h was over 50 µM. Moreover, the figures for the selectivity ratio in [4] and in series [5] were over 5350 and over 9210, respectively.
For the molecule `O=C(O)Cc1ccccc1Nc1c(Cl)cccc1Cl` [DICLOFENAC], the CLint scaled in [6] was found to be 221 mL/min/kg; in [7], 136 mL/min/kg.
Regarding `O=C1c2c(O)c(=O)ccn2N([C@@H](c2ccc(F)c(F)c2)c2ccc(-c3ccccc3)s2)[C@@H]2COCCN12`, the values for the EC50 with Influenza A virus [1] and in the series with Influenza A virus [2] were 0.0362 µM and 0.0111 µM, respectively. Further, the CC50 at 48 h in series [3] came to 39.8 µM. For the same molecule, the selectivity ratio in series [4] came out at 1100; in series [5], 3580.
As a reminder, the half-life is how long it takes for the measured level to halve. For the molecule `O=C1c2c(O)c(=O)ccn2N([C@H](c2ccc(F)c(F)c2)c2cccs2)[C@@H]2COCCN12`, the EC50 in the series with Influenza A virus [1] was 0.00804 µM; in the series on Influenza A virus [2], 0.00308 µM. Moreover, the 50% cytotoxic concentration (CC50) at 48 h in [3] amounted to 25.2 µM. Moreover, the selectivity ratio in series [4] is 3140; in [5], 8200. In addition, the values for the half-life in series [8] and in series [9] were 4.45 h and 7.7 h, respectively. The CLint scaled in [6] came out at 4.68 mL/min/kg; in series [7], 11.9 mL/min/kg.
`O=C1c2c(O)c(=O)ccn2N([C@@H](c2ccc(Cl)c(Cl)c2)c2cccs2)[C@@H]2COCCN12`: the EC50 in the series on Influenza A virus [1] was 0.0448 µM; in the series on Influenza A virus [2] it was 0.0606 µM. Also, the CC50 at 48 h in series [3] stood at 32.6 µM. Besides, the selectivity ratio in [4] was 729; in [5], 539.
Consider `O=C1c2c(O)c(=O)ccn2N([C@H](c2ccc(F)c(F)c2)c2ccc(Cl)s2)[C@@H]2COCCN12`, for which the figures for the EC50 in the series on Influenza A virus [1] and with Influenza A virus [2] were 0.0159 µM and 0.0308 µM, respectively. Also, in series [3], the CC50 at 48 h stood at 24.1 µM. Further, the selectivity ratio in series [4] came to 1510; in [5] it was 783.
Take `O=C1c2c(O)c(=O)ccn2N([C@H](c2ccc(F)c(F)c2)c2ccc(-c3ccccc3)s2)[C@@H]2COCCN12`: the EC50 stood at 0.0204 µM in the series on Influenza A virus [1] and 0.00375 µM with Influenza A virus [2]. Also, the CC50 at 48 h in series [3] amounted to 48.5 µM. Moreover, the selectivity ratio in series [4] worked out at 2380; in series [5] it was 12900.
In the same order, the values of `O=C1c2c(O)c(=O)ccn2N([C@@H](c2cccs2)c2cc(F)c(F)c(F)c2F)[C@@H]2COCCN12` are 0.00564 µM, 0.00778 µM, over 50 µM, over 8860 and over 6430.
In the same order, the values of `O=C1c2c(O)c(=O)ccn2N([C@@H](c2ccc(F)c(F)c2)c2ccc(Cl)s2)[C@@H]2COCCN12` are 0.0292 µM, 0.0519 µM, 19.4 µM, 663 and 373.
Regarding `O=C1c2c(O)c(=O)ccn2N([C@H](c2ccc(F)cc2)c2cccs2)[C@@H]2COCCN12`, the EC50 in the series on Influenza A virus [1] was 0.00319 µM. Besides, the selectivity ratio in series [4] was determined as 8390.
On to `O=C1c2c(O)c(=O)ccn2N([C@H](c2ccccc2)c2cccs2)[C@@H]2COCCN12`, for which the values for the EC50 in the series on Influenza A virus [1] and with Influenza A virus [2] were 0.0364 µM and 0.0468 µM, respectively. Also, the CC50 at 48 h in series [3] is over 50 µM. Further, the selectivity ratio was over 1370 in series [4] and over 1070 in series [5].
Regarding `O=C1c2c(O)c(=O)ccn2N([C@H](c2cccc(F)c2)c2cccs2)[C@@H]2COCCN12`, the EC50 with Influenza A virus [1] was 0.00349 µM; in the series with Influenza A virus [2], 0.026 µM. For the same molecule, the CC50 at 48 h in series [3] turned out to be 34.3 µM. In addition, the selectivity ratio in series [4] was 9840; in [5] it was 1320.
`O=C1c2c(O)c(=O)ccn2N([C@H](c2ccc3ccccc3c2)c2cccs2)[C@@H]2COCCN12`: the EC50 amounted to 0.0228 µM in the series on Influenza A virus [1] and 0.0763 µM in the series on Influenza A virus [2]. For the same molecule, in series [3], the CC50 at 48 h was determined as 17.2 µM. Further, the selectivity ratio in series [4] was determined as 752.
On to `O=C1c2c(O)c(=O)ccn2N([C@@H](c2ccc3ccccc3c2)c2cccs2)[C@@H]2COCCN12`, for which the EC50 with Influenza A virus [1] turned out to be 0.0423 µM; with Influenza A virus [2], 0.0536 µM. For the same molecule, the CC50 at 48 h in series [3] was determined as 40.6 µM. Also, the selectivity ratio in [4] stood at 960; in series [5] it was 758.
`O=C1c2c(O)c(=O)ccn2N([C@@H](c2ccc(F)cc2)c2cccs2)[C@@H]2COCCN12`: the EC50 with Influenza A virus [1] stood at 0.00506 µM; with Influenza A virus [2], 0.00165 µM. Besides, the CC50 at 48 h in series [3] amounted to 37.6 µM. The selectivity ratio is 7440 in [4] and 22800 in series [5]. Moreover, the half-life in [8] came to 12.8 h; in [9], 23.1 h. Also, the values for the CLint scaled in series [6] and in series [7] were 1.62 mL/min/kg and 3.96 mL/min/kg, respectively.
With `O=C1c2c(O)c(=O)ccn2N([C@H](c2ccc(F)c(F)c2)c2ccc(Br)s2)[C@@H]2COCCN12`, the EC50 stood at 0.0491 µM with Influenza A virus [1] and 0.0283 µM with Influenza A virus [2]. For the same molecule, the CC50 at 48 h in series [3] came out at 17.3 µM. The selectivity ratio in series [4] amounted to 353; in series [5], 613.
For the molecule `O=C1c2c(O)c(=O)ccn2N([C@@H](c2ccc(Br)c(Br)c2)c2cccs2)[C@@H]2COCCN12`, the EC50 in the series with Influenza A virus [1] amounted to 0.0356 µM; in the series on Influenza A virus [2], 0.0069 µM. Also, the CC50 at 48 h in series [3] was over 50 µM. The selectivity ratio in series [4] is over 1400; in [5], over 7250.
With `Cc1ccc([C@@H](c2cccs2)N2[C@@H]3COCCN3C(=O)c3c(O)c(=O)ccn32)cc1C`, the EC50 amounted to 0.00667 µM with Influenza A virus [1] and 0.00179 µM in the series on Influenza A virus [2]. Besides, the CC50 at 48 h in series [3] amounted to 28 µM. Also, the figures for the selectivity ratio in series [4] and in series [5] were 4190 and 15600, respectively.
In the same order, the values of `O=C1c2c(O)c(=O)ccn2N([C@@H](c2ccc(F)c(F)c2)c2cc3ccccc3s2)[C@@H]2COCCN12` are 0.0424 µM, 0.00598 µM, over 50 µM, over 1180 and over 8360.
As to `O=C1c2c(O)c(=O)ccn2N([C@H](c2ccc(Cl)c(Cl)c2)c2cccs2)[C@@H]2COCCN12`, the EC50 was determined as 0.0562 µM with Influenza A virus [1] and 0.013 µM in the series on Influenza A virus [2]. In addition, the CC50 at 48 h in series [3] turned out to be 12.1 µM. The results for the selectivity ratio in series [4] and in series [5] were 215 and 931, respectively.
For `Cc1ccc([C@H](c2cccs2)N2[C@@H]3COCCN3C(=O)c3c(O)c(=O)ccn32)cc1C`, the EC50 is 0.0478 µM with Influenza A virus [1] and 0.00811 µM in the series on Influenza A virus [2]. Moreover, in series [3], the CC50 at 48 h was 20.5 µM. Besides, the selectivity ratio in [4] came to 429; in series [5], 2530.
